Biological target: T1, AM2 receptor (1321N1 cells transfected with CALCRL+RAMP3) (Homo sapiens, UniProt O60896+Q16602)
T1 construct: host or cells: 1321N1 cells
Test: AM2 receptor inhibition, LANCE cAMP agonist-antagonist competition assay
Type: cell-based
Conditions: inhibition of AM induced cAMP activation, read-out: AM2 D2 protocol: pIC50 (converted)
In short: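 cAMP was quantified by LANCE TR-FRET after an EC50 challenge with adrenomedullin (15 min, room temperature) in CALCRL+RAMP3-transfected 1321N1 cells (2500/well) that had first been exposed to compound for 30 min. Buffer was pH 7.4 HBSS with HEPES and BSA. Forskolin defined 100% stimulation and vehicle 0%.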

T1 sequence (Q16602 23-461): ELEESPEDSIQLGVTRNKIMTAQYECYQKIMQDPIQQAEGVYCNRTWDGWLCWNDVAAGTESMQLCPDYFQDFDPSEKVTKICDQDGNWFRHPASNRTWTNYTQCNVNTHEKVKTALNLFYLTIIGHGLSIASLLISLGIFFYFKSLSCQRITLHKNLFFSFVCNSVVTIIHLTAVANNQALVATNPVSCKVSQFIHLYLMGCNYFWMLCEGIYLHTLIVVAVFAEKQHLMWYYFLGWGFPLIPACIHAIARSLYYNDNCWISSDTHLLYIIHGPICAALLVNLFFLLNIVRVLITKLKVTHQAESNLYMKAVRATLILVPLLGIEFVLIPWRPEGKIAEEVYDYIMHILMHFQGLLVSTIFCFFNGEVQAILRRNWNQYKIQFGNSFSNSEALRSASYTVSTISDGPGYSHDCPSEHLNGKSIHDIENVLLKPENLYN
T1 sequence (O60896 24-148): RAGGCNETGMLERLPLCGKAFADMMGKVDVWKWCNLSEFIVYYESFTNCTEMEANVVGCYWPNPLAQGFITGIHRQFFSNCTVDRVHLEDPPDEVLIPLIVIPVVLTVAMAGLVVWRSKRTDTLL

Compound | IC50 [nM]
CCC1(C(=O)N(CC(=O)Nc2ccc3c(c2)C[C@@]2(C3)C(=O)Nc3ncccc32)Cc2ccccc2CNC)CCN(C(=O)c2ccn[nH]2)CC1 [Example 84, (R)-4-Ethyl-N-(2-((methylamino)methyl)benzyl)-N-(2-oxo-2-((2′-oxo-1,1′,2′,3-tetrahydrospiro[indene-2,3′-pyrrolo[2,3-b]pyridin]-5-yl)amino)ethyl)-1-(1H-pyrazole-5-carbonyl)piperidine-4-carboxamide] | 3.55
CCC1(C(=O)N(CC(=O)Nc2ccc3c(c2)C[C@@]2(C3)C(=O)Nc3ncccc32)Cc2ccccc2CNC)CCN(C(=O)COCCOCCOCCOCCOCCOCCOC)CC1 [Example 97, (R)-1-(2,5,8,11,14,17,20-Heptaoxadocosan-22-oyl)-4-ethyl-N-(2-((methylamino)methyl)benzyl)-N-(2-oxo-2-((2′-oxo-1,1′,2′,3-tetrahydrospiro[indene-2,3′-pyrrolo[2,3-b]pyridin]-5-yl)amino)ethyl)piperidine-4-carboxamide] | 8.71
CNCc1ccccc1CN(CC(=O)Nc1ccc2c(c1)C[C@@]1(C2)C(=O)Nc2ncccc21)C(=O)C1(C)CCN(C(=O)c2cccnn2)CC1 [Example 26, (R)-4-Methyl-N-(2-((methylamino)methyl)benzyl)-N-(2-oxo-2-((2′-oxo-1,1′,2′,3-tetrahydrospiro[indene-2,3′-pyrrolo[2,3-b]pyridin]-5-yl)amino)ethyl)-1-(pyridazine-3-carbonyl) piperidine-4-carboxamide] | 4.57
CNCc1ccccc1CN(CC(=O)Nc1ccc2c(c1)C[C@@]1(C2)C(=O)Nc2ncccc21)C(=O)C1(C)CCN(C(=O)c2cccc(C(=O)O)c2)CC1 [Example 33, (R)-3-(4-Methyl-4-((2-((methylamino)methyl)benzyl)(2-oxo-2-((2′-oxo-1,1′,2′,3-tetrahydrospiro[indene-2,3′-pyrrolo[2,3-b]pyridin]-5-yl)amino)ethyl)carbamoyl)piperidine-1-carbonyl)benzoic Acid] | 15.1
CCC1(C(=O)N(CC(=O)Nc2ccc3c(c2)C[C@@]2(C3)C(=O)Nc3ncccc32)Cc2ccccc2CNC)CCN(C(=O)N2CC(C(F)(F)F)C2)CC1 [Example 112, (R)-4-Ethyl-N-(2-((methylamino)methyl)benzyl)-N-(2-oxo-2-((2′-oxo-1,1′,2′,3-tetrahydrospiro[indene-2,3′-pyrrolo[2,3-b]pyridin]-5-yl)amino)ethyl)-1-(3-(trifluoromethyl)azetidine-1-carbonyl)piperidine-4-carboxamide] | 23.4
CCC1(C(=O)N(CC(=O)Nc2ccc3c(c2)C[C@@]2(C3)C(=O)Nc3ncccc32)Cc2ccccc2CNC)CCN(C(=O)C(C)C)CC1 [Example 73, (R)-4-Ethyl-1-isobutyryl-N-(2-((methylamino)methyl)benzyl)-N-(2-oxo-2-((2′-oxo-1,1′,2′,3-tetrahydrospiro[indene-2,3′-pyrrolo[2,3-b]pyridin]-5-yl)amino)ethyl)piperidine-4-carboxamide] | 14.1
CNCc1ccccc1CN(CC(=O)Nc1ccc2c(c1)C[C@@]1(C2)C(=O)Nc2ncccc21)C(=O)C1(C)CCN(C(=O)c2ccccc2C(=O)O)CC1 [Example 34, (R)-2-(4-Methyl-4-((2-((methylamino)methyl)benzyl)(2-oxo-2-((2′-oxo-1,1′,2′,3-tetrahydrospiro[indene-2,3′-pyrrolo[2,3-b]pyridin]-5-yl)amino)ethyl)carbamoyl)piperidine-1-carbonyl)benzoic Acid] | 70.8
CCC1(C(=O)N(CC(=O)Nc2ccc3c(c2)C[C@@]2(C3)C(=O)Nc3ncccc32)Cc2ccccc2CNC)CCN(C(=O)C2CC2)CC1 [Example 72, (R)-1-(Cyclopropanecarbonyl)-4-ethyl-N-(2-((methylamino)methyl)benzyl)-N-(2-oxo-2-((2′-oxo-1,1′,2′,3-tetrahydrospiro[indene-2,3′-pyrrolo[2,3-b]pyridin]-5-yl)amino)ethyl)piperidine-4-carboxamide] | 8.71
CNCc1ccccc1CN(CC(=O)Nc1ccc2c(c1)C[C@@]1(C2)C(=O)Nc2ncccc21)C(=O)C1(C)CCN(C(=O)C[C@@H]2CCNC2)CC1 [Example 8, 4-Methyl-N-(2-((methylamino)methyl)benzyl)-N-(2-oxo-2-(((R)-2′-oxo-1,1′,2′,3-tetrahydrospiro[indene-2,3′-pyrrolo[2,3-b]pyridin]-5-yl)amino)ethyl)-1-(2-((S)-pyrrolidin-3-yl)acetyl)piperidine-4-carboxamide] | 18.2
CNCc1ccccc1CN(CC(=O)Nc1ccc2c(c1)C[C@@]1(C2)C(=O)Nc2ncccc21)C(=O)C1(C)CCCN(C(C)=O)C1 (stereo partly drawn) [Example 145, 1-Acetyl-3-methyl-N-(2-((methylamino)methyl)benzyl)-N-(2-oxo-2-(((R)-2′-oxo-1,1′,2′,3-tetrahydrospiro[indene-2,3′-pyrrolo[2,3-b]pyridin]-5-yl)amino)ethyl)piperidine-3-carboxamide] | 302
CNCc1cc(F)ccc1CN(CC(=O)Nc1ccc2c(c1)C[C@@]1(C2)C(=O)Nc2ncccc21)C(=O)C1(C)CCN(C(C)=O)CC1 [Example 138, (R)-1-Acetyl-N-[[4-fluoro-2-(methylaminomethyl)phenyl]methyl]-4-methyl-N-[2-oxo-2-[[(3R)-2-oxospiro[1H-pyrrolo[2,3-b]pyridine-3,2′-indane]-5′-yl]amino]ethyl]piperidine-4-carboxamide] | 501
CNCc1ccccc1CN(CC(=O)Nc1ccc2c(c1)C[C@@]1(C2)C(=O)Nc2ncccc21)C(=O)C1(C)CCN(C(=O)c2ccc(C(=O)O)cc2)CC1 [Example 35, (R)-4-(4-Methyl-4-((2-((methylamino)methyl)benzyl)(2-oxo-2-((2′-oxo-1,1′,2′,3-tetrahydrospiro[indene-2,3′-pyrrolo[2,3-b]pyridin]-5-yl)amino)ethyl)carbamoyl)piperidine-1-carbonyl)benzoic Acid] | 3.8
CNCc1ccccc1CN(CC(=O)Nc1ccc2c(c1)CC1(C2)C(=O)Nc2ncccc21)C(=O)C1(C)CCNCC1 (centres unmarked) [Example 2, 4-Methyl-N-(2-((methylamino)methyl)benzyl)-N-(2-oxo-2-((2′-oxo-1,1′,2′,3-tetrahydrospiro[indene-2,3′-pyrrolo[2,3-b]pyridin]-5-yl)amino)ethyl)piperidine-4-carboxamide bis(2,2,2-trifluoroacetate)] | 3.39
CNCc1ccccc1CN(CC(=O)Nc1ccc2c(c1)C[C@@]1(C2)C(=O)Nc2ncccc21)C(=O)C1(C)CCN(CC2CCNCC2)CC1 [Example 49, (R)-4-Methyl-N-(2-((methylamino)methyl)benzyl)-N-(2-oxo-2-((2′-oxo-1,1′,2′,3-tetrahydrospiro[indene-2,3′-pyrrolo[2,3-b]pyridin]-5-yl)amino)ethyl)-1-(piperidin-4-ylmethyl)piperidine-4-carboxamide] | 1.55
CCC1(C(=O)N(CC(=O)Nc2ccc3c(c2)C[C@@]2(C3)C(=O)Nc3ncccc32)Cc2ccccc2CNC)CCN(C(=O)c2cccc(C(F)(F)F)n2)CC1 [Example 78, (R)-4-Ethyl-N-(2-((methylamino)methyl)benzyl)-N-(2-oxo-2-((2′-oxo-1,1′,2′,3-tetrahydrospiro[indene-2,3′-pyrrolo[2,3-b]pyridin]-5-yl)amino)ethyl)-1-(6-(trifluoromethyl)picolinoyl)piperidine-4-carboxamide] | 112
CNCc1ccccc1CN(CC(=O)Nc1ccc2c(c1)C[C@@]1(C2)C(=O)Nc2ncccc21)C(=O)C1(C)CCN(C(=O)N(C)C)CC1 [Example 53, (R)—N1,N1,4-Trimethyl-N4-(2-((methylamino)methyl)benzyl)-N4-(2-oxo-2-((2′-oxo-1,1′,2′,3-tetrahydrospiro[indene-2,3′-pyrrolo[2,3-b]pyridin]-5-yl)amino)ethyl)piperidine-1,4-dicarboxamide] | 14.1
CCC1(C(=O)N(CC(=O)Nc2ccc3c(c2)C[C@@]2(C3)C(=O)Nc3ncccc32)Cc2ccccc2CNC)CCN(C(=O)NC(C)C)CC1 [Example 101, (R)-4-Ethyl-N1-isopropyl-N4-(2-((methylamino)methyl)benzyl)-N4-(2-oxo-2-((2′-oxo-1,1′,2′,3-tetrahydrospiro[indene-2,3′-pyrrolo[2,3-b]pyridin]-5-yl)amino)ethyl)piperidine-1,4-dicarboxamide] | 1.41
CNCc1ccccc1CN(CC(=O)Nc1ccc2c(c1)C[C@@]1(C2)C(=O)Nc2ncccc21)C(=O)C1(C)CCN(C(=O)N2CCNCC2)CC1 [Example 56, (R)-4-Methyl-N-(2-((methylamino)methyl)benzyl)-N-(2-oxo-2-((2′-oxo-1,1′,2′,3-tetrahydrospiro[indene-2,3′-pyrrolo[2,3-b]pyridin]-5-yl)amino)ethyl)-1-(piperazine-1-carbonyl)piperidine-4-carboxamide] | 13.2
CNCc1ccccc1CN(CC(=O)Nc1ccc2c(c1)C[C@@]1(C2)C(=O)Nc2ncccc21)C(=O)C1(C)CCN(Cc2ccncc2)CC1 [Example 50, (R)-4-Methyl-N-(2-((methylamino)methyl)benzyl)-N-(2-oxo-2-((2′-oxo-1,1′,2′,3-tetrahydrospiro[indene-2,3′-pyrrolo[2,3-b]pyridin]-5-yl)amino)ethyl)-1-(pyridin-4-ylmethyl)piperidine-4-carboxamide] | 2.19
CNCc1ccccc1CN(CC(=O)Nc1ccc2c(c1)C[C@@]1(C2)C(=O)Nc2ncccc21)C(=O)C1(C)CCN(CCOC)CC1 [Example 41, (R)-1-(2-Methoxyethyl)-4-methyl-N-(2-((methylamino)methyl)benzyl)-N-(2-oxo-2-((2′-oxo-1,1′,2′,3-tetrahydrospiro[indene-2,3′-pyrrolo[2,3-b]pyridin]-5-yl)amino)ethyl)piperidine-4-carboxamide] | 1.1

Reference: patent publication US20230036854A1, “HETEROCYCLIC SPIRO-COMPOUNDS AS AM2 RECEPTOR INHIBITORS” (THE UNIVERSITY OF SHEFFIELD, priority 2018, published 2023)
